Measurements from PubChem BioAssay (NCI).
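GI50 marks 50% less growth. TGI marks complete inhibition of growth.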

Key:
Assay in all cases: DTP human tumour cell line panel, 384-well format
786-0 renal = test system: 786-0 renal
A498 renal = test system: A498 renal
A549 NSCLC = test system: A549 NSCLC
ACHN renal = test system: ACHN renal
BT-549 breast = test system: BT-549 breast
CAKI-1 renal = test system: CAKI-1 renal
CCRF-CEM leukemia = test system: CCRF-CEM leukemia
COLO 205 colon = test system: COLO 205 colon
DU-145 prostate = test system: DU-145 prostate
EKVX NSCLC = test system: EKVX NSCLC
HCC-2998 colon = test system: HCC-2998 colon
HCT-116 colon = test system: HCT-116 colon
HCT-15 colon = test system: HCT-15 colon
HL-60(TB) leukemia = test system: HL-60(TB) leukemia
HOP-62 NSCLC = test system: HOP-62 NSCLC
HOP-92 NSCLC = test system: HOP-92 NSCLC
HS 578T breast = test system: HS 578T breast
HT29 colon = test system: HT29 colon
IGROV1 ovarian = test system: IGROV1 ovarian
K-562 leukemia = test system: K-562 leukemia
KM12 colon = test system: KM12 colon
LOX IMVI melanoma = test system: LOX IMVI melanoma
M14 melanoma = test system: M14 melanoma
MALME-3M melanoma = test system: MALME-3M melanoma
MCF7 breast = test system: MCF7 breast
MDA-MB-231 breast = test system: MDA-MB-231 breast
MDA-MB-435 melanoma = test system: MDA-MB-435 melanoma
MDA-MB-468 breast = test system: MDA-MB-468 breast
MOLT-4 leukemia = test system: MOLT-4 leukemia
NCI-H226 lung = test system: NCI-H226 lung
NCI-H23 lung = test system: NCI-H23 lung
NCI-H322M lung = test system: NCI-H322M lung
NCI-H460 NSCLC = test system: NCI-H460 NSCLC
NCI-H522 lung = test system: NCI-H522 lung
NCI/ADR-RES ovarian = test system: NCI/ADR-RES ovarian
OVCAR-3 ovarian = test system: OVCAR-3 ovarian
OVCAR-4 ovarian = test system: OVCAR-4 ovarian
OVCAR-8 ovarian = test system: OVCAR-8 ovarian
PC-3 prostate = test system: PC-3 prostate
RPMI-8226 leukemia = test system: RPMI-8226 leukemia
RXF 393 renal = test system: RXF 393 renal
SF-268 CNS = test system: SF-268 CNS
SF-295 CNS = test system: SF-295 CNS
SF-539 CNS = test system: SF-539 CNS
SK-MEL-28 melanoma = test system: SK-MEL-28 melanoma
SK-MEL-5 melanoma = test system: SK-MEL-5 melanoma
SK-OV-3 ovarian = test system: SK-OV-3 ovarian
SN12C renal = test system: SN12C renal
SNB-19 CNS = test system: SNB-19 CNS
SNB-75 CNS = test system: SNB-75 CNS
SR leukemia = test system: SR leukemia
SW-620 colon = test system: SW-620 colon
T-47D breast = test system: T-47D breast
TK-10 renal = test system: TK-10 renal
U251 glioblastoma = test system: U251 glioblastoma
UACC-257 melanoma = test system: UACC-257 melanoma
UACC-62 melanoma = test system: UACC-62 melanoma
UO-31 renal = test system: UO-31 renal

In the case of `CN1CCN(c2ccc(Nc3ncc4cc(C#N)c(=O)n(C5CCCC5)c4n3)cc2)CC1`, the GI50 ([…]-0 renal) is reported as 0.755 µM, the TGI (786-0 renal) is reported as 28.2 µM and the GI50 (A498 renal) is reported as 1.09 µM. The TGI (A498 renal) was 7.46 µM, the GI50 (A549 NSCLC) was 1.04 µM and the TGI (A549 NSCLC) was 16.1 µM. It also gave a GI50 (ACHN renal) of 0.521 µM, a TGI (ACHN renal) of 22.9 µM and a GI50 (BT-549 breast) of 1.75 µM. The TGI (BT-549 breast) was 12.2 µM, the GI50 (CAKI-1 renal) was 0.259 µM and the TGI (CAKI-1 renal) was 3.09 µM. It also gave a GI50 (CCRF-CEM leukemia) of 0.365 µM, a TGI (CCRF-CEM leukemia) of 1.72 µM and a GI50 (COLO 205 colon) of 0.981 µM. The TGI (COLO 205 colon) was greater than 100 µM, the GI50 (DU-145 prostate) was 1.56 µM and the TGI (DU-145 prostate) was 25.8 µM. It also gave a GI50 (EKVX NSCLC) of 6.55 µM, a TGI (EKVX NSCLC) of 27.9 µM and a GI50 (HCC-2998 colon) of 1.8 µM. The TGI (HCC-2998 colon) was 18.5 µM, the GI50 (HCT-116 colon) was 0.372 µM and the TGI (HCT-116 colon) was 11.1 µM. For the same compound, the GI50 (HCT-15 colon) was 0.837 µM, the TGI (HCT-15 colon) was 15.4 µM and the GI50 (HL-60(TB) leukemia) was 0.0949 µM. For the same compound, the TGI (HL-60(TB) leukemia) was 1.38 µM, the GI50 (HOP-62 NSCLC) was 2.43 µM and the TGI (HOP-62 NSCLC) was 14.6 µM. The GI50 (HOP-92 NSCLC) was 2.03 µM, the TGI (HOP-92 NSCLC) was 29 µM and the GI50 (HS 578T breast) was 1.42 µM. For the same compound, the TGI (HS 578T breast) was 3.95 µM, the GI50 (HT29 colon) was 1.18 µM and the TGI (HT29 colon) was greater than 100 µM. The GI50 (IGROV1 ovarian) was 0.674 µM, the TGI (IGROV1 ovarian) was 11 µM and the GI50 (K-562 leukemia) was 0.462 µM. For the same compound, the TGI (K-562 leukemia) was greater than 100 µM, the GI50 (KM12 colon) was 1.02 µM and the TGI (KM12 colon) was 55.5 µM. It also gave a GI50 (LOX IMVI melanoma) of 0.799 µM, a TGI (LOX IMVI melanoma) of 13.9 µM and a GI50 (M14 melanoma) of 1.07 µM. The TGI (M14 melanoma) was greater than 100 µM, the GI50 (MALME-3M melanoma) was 0.535 µM and the TGI (MALME-3M melanoma) was 92.9 µM. For the same compound, the GI50 (MCF7 breast) was 0.299 µM, the TGI (MCF7 breast) was 3.68 µM and the GI50 (MDA-MB-231 breast) was 0.718 µM. It also gave a TGI (MDA-MB-231 breast) greater than 100 µM, a GI50 (MDA-MB-435 melanoma) of 3.37 µM and a TGI (MDA-MB-435 melanoma) of 66.9 µM. It also gave a GI50 (MDA-MB-468 breast) of 1.89 µM, a TGI (MDA-MB-468 breast) of 4.31 µM and a GI50 (MOLT-4 leukemia) of 0.141 µM. For the same compound, the TGI (MOLT-4 leukemia) was 0.532 µM, the GI50 (NCI-H226 lung) was 0.457 µM and the TGI (NCI-H226 lung) was 13.8 µM. It also gave a GI50 (NCI-H23 lung) of 1.23 µM, a TGI (NCI-H23 lung) of 18.7 µM and a GI50 (NCI-H322M lung) of 2.22 µM. For the same compound, the TGI (NCI-H322M lung) was 47.8 µM, the GI50 (NCI-H460 NSCLC) was 0.271 µM and the TGI (NCI-H460 NSCLC) was 11 µM. It also gave a GI50 (NCI-H522 lung) of 1.2 µM, a TGI (NCI-H522 lung) of 18.9 µM and a GI50 (NCI/ADR-RES ovarian) of 8.59 µM. For the same compound, the TGI (NCI/ADR-RES ovarian) was 34.9 µM, the GI50 (OVCAR-3 ovarian) was 3.1 µM and the TGI (OVCAR-3 ovarian) was 14.4 µM. It also gave a GI50 (OVCAR-4 ovarian) of 27.1 µM, a TGI (OVCAR-4 ovarian) greater than 100 µM and a GI50 (OVCAR-8 ovarian) of 4.65 µM. For the same compound, the TGI (OVCAR-8 ovarian) was 37.2 µM, the GI50 (PC-3 prostate) was 0.819 µM and the TGI (PC-3 prostate) was 46.5 µM. For the same compound, the GI50 (RPMI-8226 leukemia) was 0.0798 µM, the TGI (RPMI-8226 leukemia) was 0.818 µM and the GI50 (RXF 393 renal) was 0.727 µM. For the same compound, the TGI (RXF 393 renal) was 3.14 µM, the GI50 (SF-268 CNS) was 1.65 µM and the TGI (SF-268 CNS) was 12.6 µM. It also gave a GI50 (SF-295 CNS) of 0.632 µM, a TGI (SF-295 CNS) of 19.8 µM and a GI50 (SF-539 CNS) of 2.23 µM. It also gave a TGI (SF-539 CNS) of 13.2 µM, a GI50 (SK-MEL-28 melanoma) of 8.46 µM and a TGI (SK-MEL-28 melanoma) of 72.1 µM. For the same compound, the GI50 (SK-MEL-5 melanoma) was 10.9 µM, the TGI (SK-MEL-5 melanoma) was 26.6 µM and the GI50 (SK-OV-3 ovarian) was 1.04 µM. For the same compound, the TGI (SK-OV-3 ovarian) was 29.9 µM, the GI50 (SN12C renal) was 0.271 µM and the TGI (SN12C renal) was 4.43 µM. It also gave a GI50 (SNB-19 CNS) of 3.17 µM, a TGI (SNB-19 CNS) greater than 100 µM and a GI50 (SNB-75 CNS) of 1.8 µM. It also gave a TGI (SNB-75 CNS) of 10.9 µM, a GI50 (SR leukemia) of 0.498 µM and a TGI (SR leukemia) of 1 µM. For the same compound, the GI50 (SW-620 colon) was 0.728 µM, the TGI (SW-620 colon) was 28 µM and the GI50 (T-47D breast) was 7.4 µM. It also gave a TGI (T-47D breast) greater than 100 µM, a GI50 (TK-10 renal) of 1.32 µM and a TGI (TK-10 renal) of 12.4 µM. The GI50 (U251 glioblastoma) was 1.6 µM, the TGI (U251 glioblastoma) was 22.4 µM and the GI50 (UACC-257 melanoma) was 10.8 µM. It also gave a TGI (UACC-257 melanoma) of 32.1 µM, a GI50 (UACC-62 melanoma) of 1.4 µM and a TGI (UACC-62 melanoma) of 23.6 µM. For the same compound, the GI50 (UO-31 renal) was 0.551 µM and the TGI (UO-31 renal) was 14.8 µM.
